According to US5646308A, “Benzopyran derivatives” (Chugai Seiyaku Kabushiki Kaisha, priority 1992, dated 1997):

Columns and labels:
[1] = test system: Guinea Pig Tracheal Muscle; assay: Test with Guinea Pig Tracheal Muscle: relaxing activity on spontaneous tension; design: species or system male Hartley guinea pig; details: Cavia porcellus, relaxation by 1 mM aminophylline = 100%, 37° C., tension 1 g, read-out: IC50 (concentration exhibiting 50% relaxing activity), Guinea Pig Tracheal Muscle
Method: Test with Guinea Pig Tracheal Muscle
The trachea was excised from a male Hartley guinea pig (450 to 550 g) to make chain preparations. The preparation was suspended In a bath containing the same Krebs-henseleit solution as used in Test Example 1 (37° C.) through which a mixed gas of 95% O2 and 5% CO2 was bubbled. Isometric contractions of the preparation were recorded under a tension of 1 g.
The same test compounds as used in Test Example 1 were used.

Rat Aorta = assay: Test with Excised Aorta of Rat: relaxation of lasting KCl-induced contraction; design: species or system male Sprague Dawley rat; details: rat thoracic aorta rings, 30 mM KCl contraction, Krebs-Henseleit, 37° C., tension 2 g; read-out: IC50 (50% inhibitory concentration, relaxation of lasting contraction following KCl addition), Rat Aorta
Method: Test with Excised Aorta of Rat
The thoracic aorta was excised from a male Sprague Dawley rat (450 to 600 g) and cut into 2 mm wide ring preparations. Each preparation was suspended in 10 ml of an organ bath containing a Krebs-Henseleit solution (NaCl: 119; KCl: 4.8; CaCl2 ·2H2 O: 2.53; KH2 PO4 : 1.2; MgSO4 ·7H2 O: 1.2; NaHCO3 : 24.8; glucose: 10 (mM); 37° C.) under a tension of 2 g, and a mixed gas of 95% O2 and 5% CO2 was bubbled therethrough. Isometric contractions of the preparation were recorded by means of an FD pick-up. […] The activity of a test compound to relax a lasting contraction following the KCl addition was evaluated by obtaining a 50% inhibitory concentration (IC50).
The compounds of the present invention obtained in the foregoing Examples and, for comparison, Cromakalim were used as test compounds.

[2] = test system: histamine-induced increase in respiratory tract inner pressure; assay: Study on Antiasthmatic Activity: inhibition of histamine-induced increase in respiratory tract inner pressure; assay type: in vivo, male hartley guinea pig; details: Cavia porcellus, 10 min; anesthetized guinea pig, intraduodenal, 0.3% CMC suspension; histamine 5 to 10 μg/kg i.v. every 10 minutes; read-out: ED50 (dose for 50% inhibition of the histamine-induced increase in respiratory tract inner pressure)
Method: Study on Antiasthmatic Activity
A mid-line incision was made in the neck of a male hartley guinea pig (600 to 800 g, CRJ) under anesthesia with […] (40 mg/kg, i.p.). The trachea, the […], and the left carotid artery were exposed, and a cannula was inserted into each of them. The inner pressure of the respiratory tract was measured while applying artificial respiration through the tracheal cannula. The blood pressure was measured through the arterial cannula, and the heart rate was determined from the pulse. Pentobarbital for anesthesia maintenance was continuously administered through the venous cannula. A mid-line incision was made on the abdomen to expose the duodenum, and a canuula for intraduodenal administration was inserted thereinto. After the postoperative convalescene of 30 to 60 minutes, histamine (5 to 10 μg/kg) was intravenously administered every 10 minutes. After it was confirmed that a respiratory tract inner pressure rise reaction was stably obtained, a test compound in the form of a 0.3% CMC suspension was intraduodenally administered. The histamine dose was so selected that the respiratory tract inner pressure might rise to 20 to 40 cmH2 O after every intravenous administration. After administration of the test compound, intrvenous administration of histamine at 10 minutes intervals was continued. The histamine-induced increase in respiratory tract inner pressure after the administration of the test compound was compared with that before the administration.

| IC50 [1] [nM] | IC50 (Rat Aorta) [nM] | SMILES | ED50 [2] [mg/kg] |
| --- | --- | --- | --- |
| 10 | 6 | CNC(=O)C1=CC(CF)(CF)Oc2ccc([N+](=O)[O-])cc21 [Example 7, 2,2-Bis(fluoromethyl)-N-methyl-6-nitro-2H-1-benzopyran-4-carboxamide] | 0.01 |
| 3 | 0.28 | CNC(=S)C1=CC(CF)(CF)Oc2ccc([N+](=O)[O-])cc21 [Example 8, 2,2-Bis(fluoromethyl)-N-methyl-6-nitro-2H-1-benzopyran-4-carbothioamide] |  |
| 41 | 14 | CN=C(NC#N)C1=CC(CF)(CF)Oc2ccc([N+](=O)[O-])cc21 [Example 9, N-Cyano-2,2-bis(fluoromethyl)-N'-methyl-6-nitro-2H-1-benzopyran-4-amidine] |  |
| 5 | 2.1 | N#CCCNC(=O)C1=CC(CF)(CF)Oc2ccc([N+](=O)[O-])cc21 [Example 10, N-(2-cyanoethyl)-2,2-bis(fluoromethyl)-6-nitro-2H-1-benzopyran-4-carboxamide] |  |

The remaining lines, values behind:

| SMILES | IC50 [1] [nM] | IC50 (Rat Aorta) [nM] | ED50 [2] [mg/kg] |
| --- | --- | --- | --- |
| CC1(C)Oc2ccc(C#N)cc2[C@@H](N2CCCC2=O)[C@@H]1O (relative stereo) [Cromakalim, reference compound] | 790 | 180 | 1 to 3 |
| CNC(=O)C1=CC(C)(COC)Oc2ccc([N+](=O)[O-])cc21 (stereo not shown) [1(2), 2-methoxymethyl-N,2-dimethyl-6-nitro-2H-1-benzopyran-4-carboxamide] | 86 | 59 | 0.1 |
| CNC(=S)C1=CC(C)(COC)Oc2ccc([N+](=O)[O-])cc21 (stereo not shown) [Example 2, 2-Methoxymethyl-N,2-dimethyl-6-nitro-2H-1-benzopyran-4-carbothioamide] | 29 | 17 |  |
| CN=C(NC#N)C1=CC(C)(COC)Oc2ccc([N+](=O)[O-])cc21 (stereo not shown) [Example 3, N-Cyano-2-methoxymethyl-N',2-dimethyl-6-nitro-2H-1-benzopyran-4-amidine] | 260 | 97 |  |
